# Source: PubChem BioAssay (NCI)
# Where “and” joins values, the source holds several entries; their conditions need not be identical. Equal entries are not always repeated.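 Following 48 hours of exposure in 96-well plates, responses at five concentrations were used to interpolate endpoints linearly. GI50 marks 50% less growth. TGI: concentration producing complete growth inhibition.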
# How the values were obtained:
# Assay in all cases: NCI-60 cell line screen, 48 h
# [1] = tested on: A498 renal
# [2] = tested on: A549 NSCLC
# [3] = tested on: ACHN renal
# [4] = tested on: CAKI-1 renal
# [5] = tested on: CCRF-CEM leukemia
# [6] = tested on: COLO 205 colon
# [7] = tested on: DLD-1 colon
# [8] = tested on: DMS 114 small cell lung
# [9] = tested on: DMS 273 small cell lung
# [10] = tested on: EKVX NSCLC
# [11] = tested on: HCC-2998 colon
# [12] = tested on: HCT-116 colon
# [13] = tested on: HCT-15 colon
# [14] = tested on: HL-60(TB) leukemia
# [15] = tested on: HOP-18 NSCLC
# [16] = tested on: HOP-92 NSCLC
# [17] = tested on: HT29 colon
# [18] = tested on: IGROV1 ovarian
# [19] = tested on: K-562 leukemia
# [20] = tested on: KM12 colon
# [21] = tested on: LOX IMVI melanoma
# [22] = tested on: LXFL 529 NSCLC
# [23] = tested on: M14 melanoma
# [24] = tested on: MALME-3M melanoma
# [25] = tested on: MOLT-4 leukemia
# [26] = tested on: NCI-H226 lung
# [27] = tested on: NCI-H23 lung
# [28] = tested on: NCI-H460 lung
# [29] = tested on: OVCAR-4 ovarian
# [30] = tested on: OVCAR-5 ovarian
# [31] = tested on: OVCAR-8 ovarian
# [32] = tested on: RPMI-8226 leukemia
# [33] = tested on: RXF 393 renal
# [34] = tested on: SF-268 CNS
# [35] = tested on: SF-295 CNS
# [36] = tested on: SF-539 CNS
# [37] = tested on: SK-MEL-2 melanoma
# [38] = tested on: SK-MEL-28 melanoma
# [39] = tested on: SK-MEL-5 melanoma
# [40] = tested on: SN12C renal
# [41] = tested on: SNB-75 CNS
# [42] = tested on: SNB-78 CNS
# [43] = tested on: SR leukemia
# [44] = tested on: SW-620 colon
# [45] = tested on: TK-10 renal
# [46] = tested on: U251 CNS
# [47] = tested on: UACC-257 melanoma
# [48] = tested on: UO-31 renal
# [49] = tested on: XF 498 CNS
# [50] = tested on: 786-0 renal
# [51] = tested on: HOP-62 NSCLC
# [52] = tested on: KM20L2 colon
# [53] = tested on: M19-MEL melanoma
# [54] = tested on: NCI-H522 lung
# [55] = tested on: OVCAR-3 ovarian
# [56] = tested on: SK-OV-3 ovarian
# [57] = tested on: SNB-19 CNS
# [58] = tested on: UACC-62 melanoma
structure (smiles),measurement,setting,value
OCc1cc2ccncc2c2c1[nH]c1ccccc12,TGI,[1],19600 nM
same,TGI,[2],24800 nM
same,TGI,[3],15900 nM
same,TGI,[4],17900 nM
same,TGI,[5],> 100000 nM
same,TGI,[6],29400 nM
same,TGI,[7],> 100000 nM
same,TGI,[8],23100 nM
same,TGI,[9],16500 nM
same,TGI,[10],> 100000 nM
same,TGI,[11],22100 nM
same,TGI,[12],15700 nM
same,TGI,[13],91500 nM
same,TGI,[14],24900 nM
same,TGI,[15],27400 nM
same,TGI,[16],82500 nM
same,TGI,[17],22800 nM
same,TGI,[18],17100 nM
same,TGI,[19],> 100000 nM
same,TGI,[20],> 100000 nM
same,TGI,[21],16300 nM
same,TGI,[22],22000 nM
same,TGI,[23],43800 nM
same,TGI,[24],24600 nM
same,TGI,[25],> 100000 nM
same,TGI,[26],6710 nM
same,TGI,[27],48200 nM
same,TGI,[28],19500 nM
same,TGI,[29],26800 nM
same,TGI,[30],26700 nM
same,TGI,[31],49300 nM
same,TGI,[32],37200 nM
same,TGI,[33],9770 nM
same,TGI,[34],34200 nM
same,TGI,[35],25100 nM
same,TGI,[36],14800 nM
same,TGI,[37],67500 nM
same,TGI,[38],> 100000 nM
same,TGI,[39],25100 nM
same,TGI,[40],30300 nM
same,TGI,[41],19500 nM
same,TGI,[42],63100 nM
same,TGI,[43],20000 nM
same,TGI,[44],19700 nM
same,TGI,[45],67700 nM
same,TGI,[46],18900 nM
same,TGI,[47],51300 nM
same,TGI,[48],28000 nM
same,TGI,[49],19700 nM
COC(=O)C12OCC34C(CC5C(C)C6=CC(=O)OC6=CC5(C)C3C(O)C1O)OC(=O)C(O)C24 (centres undefined),GI50,[50],310 nM
same,TGI,[50],5660 nM
same,GI50,[1],266 nM
same,TGI,[1],507 nM and 1490 nM
same,GI50,[2],415 nM
same,TGI,[2],23200 nM
same,GI50,[3],486 nM
same,TGI,[3],17100 nM
same,TGI,[4],30000 nM
same,GI50,[6],252 nM
same,GI50,[8],44.1 nM
same,TGI,[8],527 nM and 4350 nM
same,GI50,[9],70.7 nM
same,TGI,[9],528 nM and 359 nM
same,GI50,[10],249 nM
same,GI50,[11],75 nM
same,TGI,[11],347 nM and 676 nM
same,GI50,[12],224 nM
same,TGI,[12],6310 nM
same,GI50,[13],458 nM
same,TGI,[13],12900 nM
same,TGI,[14],4270 nM
same,GI50,[15],929 nM
same,GI50,[51],177 nM
same,TGI,[51],704 nM and 3540 nM
same,GI50,[16],146 nM
same,TGI,[16],525 nM and 2330 nM
same,GI50,[17],1680 nM
same,TGI,[17],674 nM
same,GI50,[18],170 nM
same,TGI,[18],436 nM and 1410 nM
same,GI50,[19],46.8 nM
same,TGI,[19],6940 nM
same,GI50,[20],331 nM
same,TGI,[20],12500 nM
same,GI50,[52],638 nM
same,TGI,[52],30900 nM
same,GI50,[21],54.2 nM
same,TGI,[21],288 nM and 1420 nM
same,GI50,[22],37.9 nM
same,TGI,[22],737 nM and 1360 nM
same,GI50,[23],177 nM and 767 nM
same,TGI,[23],504 nM and 2220 nM
same,GI50,[53],133 nM
same,TGI,[53],723 nM and 2200 nM
same,GI50,[24],89.6 nM
same,TGI,[24],351 nM and 665 nM
same,GI50,[25],31.4 nM
same,TGI,[25],375 nM and 1270 nM
same,GI50,[26],87.5 nM
same,GI50,[27],156 nM
same,TGI,[27],493 nM and 1160 nM
same,GI50,[28],61.6 nM
same,TGI,[28],716 nM and 1180 nM
same,GI50,[54],50.1 nM
same,GI50,[55],282 nM
same,TGI,[55],3610 nM
same,GI50,[29],155 nM
same,GI50,[30],599 nM
same,TGI,[30],20300 nM
same,GI50,[31],328 nM
same,TGI,[31],14700 nM
same,GI50,[32],33.3 nM
same,TGI,[32],116 nM and 250 nM
same,GI50,[33],403 nM
same,TGI,[33],4490 nM
same,GI50,[34],287 nM
same,TGI,[34],3340 nM
same,GI50,[35],351 nM
same,TGI,[35],956 nM and 6030 nM
same,GI50,[36],32.8 nM
same,TGI,[36],116 nM and 397 nM
same,GI50,[37],313 nM
same,TGI,[37],944 nM and 2430 nM
same,GI50,[38],89.9 nM
same,TGI,[38],933 nM and 2290 nM
same,GI50,[39],373 nM
same,TGI,[39],255 nM and 2310 nM
same,GI50,[56],328 nM
same,TGI,[56],24600 nM
same,GI50,[40],416 nM
same,TGI,[40],34100 nM
same,GI50,[57],52.5 nM
same,GI50,[41],158 nM
same,TGI,[41],682 nM and 2480 nM
same,GI50,[42],402 nM
same,TGI,[42],8310 nM
same,GI50,[44],282 nM
same,TGI,[44],9400 nM
same,GI50,[45],534 nM
same,TGI,[45],58200 nM
same,GI50,[46],44.6 nM
same,GI50,[47],339 nM
same,TGI,[47],8500 nM
same,GI50,[58],262 nM
same,TGI,[58],779 nM and 1910 nM
same,TGI,[48],61800 nM
same,GI50,[49],60.9 nM and 344 nM
same,TGI,[49],291 nM and 1930 nM
O=C(c1ccccc1)c1nc2ccc(Cl)cc2c2c1CCCO2,TGI,[3],> 100000 nM
same,TGI,[4],> 100000 nM
same,TGI,[6],> 100000 nM
same,TGI,[8],> 100000 nM
same,TGI,[9],> 100000 nM
same,TGI,[10],> 100000 nM
same,TGI,[11],> 100000 nM
same,TGI,[12],> 100000 nM
same,TGI,[13],> 100000 nM
same,TGI,[15],> 100000 nM
same,TGI,[51],> 100000 nM
same,TGI,[17],> 100000 nM
same,TGI,[18],> 100000 nM
same,TGI,[19],> 100000 nM
same,TGI,[20],> 100000 nM
same,TGI,[52],> 100000 nM
same,TGI,[21],> 100000 nM
same,TGI,[22],> 100000 nM
same,TGI,[23],> 100000 nM
same,TGI,[53],> 100000 nM
same,TGI,[24],> 100000 nM
same,TGI,[25],> 100000 nM
same,TGI,[26],> 100000 nM
same,TGI,[27],> 100000 nM
same,TGI,[28],> 100000 nM
same,TGI,[54],> 100000 nM
same,TGI,[55],> 100000 nM
same,TGI,[29],> 100000 nM
same,TGI,[30],> 100000 nM
same,TGI,[31],> 100000 nM
same,TGI,[32],> 100000 nM
same,TGI,[33],> 100000 nM
same,TGI,[34],> 100000 nM
same,TGI,[35],> 100000 nM
same,TGI,[37],> 100000 nM
same,TGI,[38],> 100000 nM
same,TGI,[40],> 100000 nM
same,TGI,[57],> 100000 nM
same,TGI,[42],> 100000 nM
same,TGI,[43],> 100000 nM
same,TGI,[44],> 100000 nM
same,TGI,[45],> 100000 nM
same,TGI,[46],> 100000 nM
same,TGI,[58],> 100000 nM
same,TGI,[48],> 100000 nM
same,TGI,[49],> 100000 nM
